Drawing on PubChem BioAssay AID1259407 (Chemical Carcinogenesis Research Information System (CCRIS), 2018), this text covers mutagenic call for eleven compounds.

Calls of active or inactive are those of the source. No rule for the calls is given here.

For the series, the system named is CCRIS mutagenicity, Ames/micronucleus/aberration tests. Put plainly: CCRIS mutagenicity studies.
Setting [1] is: Test System: AMES SALMONELLA TYPHIMURIUM, Strain/Indicator: TA97, Metabolic Activation: NONE, Method: PREINCUBATION
[2] abbreviates: Test System: AMES SALMONELLA TYPHIMURIUM, Strain/Indicator: TA97, Metabolic Activation: NONE, Method: STANDARD PLATE.
The mark [3] stands for this setting: Test System: AMES SALMONELLA TYPHIMURIUM, Strain/Indicator: TA97, Metabolic Activation: RAT, LIVER, S-9, AROCLOR 1254, Method: STANDARD PLATE.
Where [4] appears, read: Test System: AMES SALMONELLA TYPHIMURIUM, Strain/Indicator: TA98, Metabolic Activation: NONE, Method: PREINCUBATION
The mark [5] stands for this setting: Test System: AMES SALMONELLA TYPHIMURIUM, Strain/Indicator: TA98, Metabolic Activation: NONE, Method: STANDARD PLATE.
Where [6] appears, read: Test System: AMES SALMONELLA TYPHIMURIUM, Strain/Indicator: TA98, Metabolic Activation: RAT, LIVER, S-9, AROCLOR 1254, Method: STANDARD PLATE.
Where [7] appears, read: Test System: AMES SALMONELLA TYPHIMURIUM, Strain/Indicator: TA100, Metabolic Activation: NONE, Method: PREINCUBATION
Where [8] appears, read: Test System: AMES SALMONELLA TYPHIMURIUM, Strain/Indicator: TA100, Metabolic Activation: NONE, Method: STANDARD PLATE.
Where [9] appears, read: Test System: AMES SALMONELLA TYPHIMURIUM, Strain/Indicator: TA100, Metabolic Activation: RAT, LIVER, S-9, AROCLOR 1254, Method: STANDARD PLATE.
Where [10] appears, read: Test System: AMES SALMONELLA TYPHIMURIUM, Strain/Indicator: TA102, Metabolic Activation: NONE, Method: STANDARD PLATE.
The mark [11] stands for this setting: Test System: AMES SALMONELLA TYPHIMURIUM, Strain/Indicator: TA100, Metabolic Activation: RAT, S-9, AROCLOR, Method: STANDARD PLATE.

For `ClC1=C(Cl)[C@]2(Cl)[C@H]3[C@H]([C@@H]4C=C[C@H]3C4)[C@@]1(Cl)C2(Cl)Cl`, the mutagenic call (Test System: AMES SALMONELLA TYPHIMURIUM, Strain/Indicator: TA97, Metabolic Activation: HAMSTER, LIVER, S-9, AROCLOR 1254 (10 OR 30%), Method: PREINCUBATION) is “inactive; negative”; the mutagenic call under setting [1] was “inactive; negative”; the mutagenic call under setting [2] was “inactive; negative”; the mutagenic call (Test System: AMES SALMONELLA TYPHIMURIUM, Strain/Indicator: TA97, Metabolic Activation: RAT, LIVER, S-9, AROCLOR 1254 (10 OR 30%), Method: PREINCUBATION) was “inactive; negative”; the mutagenic call under setting [3] was “inactive; negative”; the mutagenic call (Test System: AMES SALMONELLA TYPHIMURIUM, Strain/Indicator: TA98, Metabolic Activation: HAMSTER, LIVER, S-9, AROCLOR 1254 (10 OR 30%), Method: PREINCUBATION) was “inactive; negative”. The mutagenic call is, setting by setting: under setting [4], “inactive; negative”; under setting [5], “inactive; negative”; (Test System: AMES SALMONELLA TYPHIMURIUM, Strain/Indicator: TA98, Metabolic Activation: RAT, LIVER, S-9, AROCLOR 1254 (10 OR 30%), Method: PREINCUBATION) “inactive; negative”; under setting [6], “inactive; negative”; (Test System: AMES SALMONELLA TYPHIMURIUM, Strain/Indicator: TA100, Metabolic Activation: HAMSTER, LIVER, S-9, AROCLOR 1254 (10 OR 30%), Method: PREINCUBATION) “inactive; negative”; under setting [7], “inactive; negative”. For the same compound, the mutagenic call reads like this: under setting [8], “inactive; negative”; (Test System: AMES SALMONELLA TYPHIMURIUM, Strain/Indicator: TA100, Metabolic Activation: RAT, LIVER, S-9, AROCLOR 1254 (10 OR 30%), Method: PREINCUBATION) “inactive; negative”; under setting [9], “inactive; negative”; under setting [10], “inactive; negative”; (Test System: AMES SALMONELLA TYPHIMURIUM, Strain/Indicator: TA102, Metabolic Activation: RAT, LIVER, S-9, AROCLOR 1254, Method: STANDARD PLATE) “inactive; negative”; (Test System: AMES SALMONELLA TYPHIMURIUM, Strain/Indicator: TA1535, Metabolic Activation: HAMSTER, LIVER, S-9, AROCLOR 1254 (10 OR 30%), Method: PREINCUBATION) “inactive; negative”. Besides, the mutagenic call reads like this: (Test System: AMES SALMONELLA TYPHIMURIUM, Strain/Indicator: TA1535, Metabolic Activation: NONE, Method: PREINCUBATION) “inactive; negative”; (Test System: AMES SALMONELLA TYPHIMURIUM, Strain/Indicator: TA1535, Metabolic Activation: RAT, LIVER, S-9, AROCLOR 1254 (10 OR 30%), Method: PREINCUBATION) “inactive; negative”; (Test System: AMES SALMONELLA TYPHIMURIUM, Strain/Indicator: TA1537, Metabolic Activation: HAMSTER, LIVER, S-9, AROCLOR 1254 (30%), Method: PREINCUBATION) “inactive; negative”; (Test System: AMES SALMONELLA TYPHIMURIUM, Strain/Indicator: TA1537, Metabolic Activation: NONE, Method: PREINCUBATION) “inactive; negative”; (Test System: AMES SALMONELLA TYPHIMURIUM, Strain/Indicator: TA1537, Metabolic Activation: RAT, LIVER, S-9, AROCLOR 1254 (30%), Method: PREINCUBATION) “inactive; negative”.
Regarding `NC(=O)c1csc([N+](=O)[O-])c1`, the mutagenic call runs as follows: under setting [5], “active; positive”; under setting [8], “active; positive”.
As to `O=C(/C=C/c1ccc(O)cc1)c1ccccc1`, the mutagenic call reads like this: under setting [5], “inactive; negative”; under setting [6], “inactive; negative”; under setting [8], “inactive; negative”; under setting [9], “inactive; negative”.
For the compound `CCCCOc1c(C(=O)NOC(C)=O)ccc2ccccc12`, the mutagenic call runs as follows: under setting [8], “active; positive”; under setting [11], “active; positive”.
In the case of `O[C@@H]1[C@H]2O[C@H]2c2c(ccc3ccccc23)[C@H]1O`, the mutagenic call under setting [1] was “active; positive”; the mutagenic call under setting [4] is “active; positive”; the mutagenic call under setting [7] was “active; positive”; the mutagenic call under setting [8] was “active; positive”; the mutagenic call (Test System: AMES SALMONELLA TYPHIMURIUM, Strain/Indicator: TA104, Metabolic Activation: NONE, Method: PREINCUBATION) is “active; positive”; the mutagenic call (Test System: CHINESE HAMSTER V-79, Strain/Indicator: V-79/6-THIOGUANINE, Metabolic Activation: NONE) is “active; positive”.
As to `NCCc1cc(O)c(O)cc1O`, the mutagenic call was “active; positive” under setting [10] and “active; positive” (Test System: AMES SALMONELLA TYPHIMURIUM, Strain/Indicator: TA104, Metabolic Activation: NONE, Method: STANDARD PLATE).
Turning to `Cc1cccc(C(=O)ON(OCc2ccccc2)C(=O)c2ccccc2)c1`, the mutagenic call by setting is: under setting [8], “active; positive”; under setting [11], “active; positive”.
On to `c1cnc2c(c1)ccc1ncccc12`, for which the mutagenic call (Test System: AMES SALMONELLA TYPHIMURIUM, Strain/Indicator: TA100, Metabolic Activation: RAT, LIVER, S-9, PHENOBARBITAL AND 5,6-BENZOFLAVONE, Method: PREINCUBATION) was “active; positive”.
For `CC(=O)Nc1ccc(Oc2ccc(Cl)cc2)cc1`, the mutagenic call reads like this: under setting [8], “inactive; negative”; (Test System: AMES SALMONELLA TYPHIMURIUM, Strain/Indicator: TA100, Metabolic Activation: RAT, LIVER, S-9, KANECLOR 500, Method: STANDARD PLATE) “active; positive”.
`Nc1ncnc2c1ncn2C(c1ccccc1)c1ccccc1`: the mutagenic call under setting [2] was “inactive; negative”; the mutagenic call under setting [3] is “inactive; negative”; the mutagenic call under setting [5] is “inactive; negative”; the mutagenic call under setting [6] was “active; positive”; the mutagenic call under setting [8] was “inactive; negative”; the mutagenic call under setting [9] is “inactive; negative”.
In the case of `CC(C)(C)CC(C)(C)c1ccc(OCCO)cc1`, under “Test System: MOUSE LYMPHOMA, Strain/Indicator: L5178Y (TK+/TK-), Metabolic Activation: NONE, Method: SUSPENSION/PLATE”, the mutagenic call is “inactive; negative”.
